Patent US8178552B2, “7-Azaindole derivatives and their use in the inhibition of c-Jun N-terminal kinase” (Eisai R&D Management Co., Ltd., priority 2008, dated 2012)

Tests used:
Assay type in all cases: biochemical
panel of 100 kinases = test: Selectivity against a panel of 100 kinases (Upstate/Millipore), expressed as Gini coefficient; settings: calculated from remaining activity at 1 micromolar compound, 10 micromolar ATP, 0 = non-selective, 1 = perfect selectivity
Experimental: Inhibitory potency of compounds (I) at a concentration of 1 micromolar and with ATP concentration of 10 micromolar was determined at Upstate/Millipore against a panel of 100 kinases representing all major families within the kinome. The results are presented in Table 3 and are expressed as percentage of remaining activity.
For comparison purposes Table 4 contains the relevant inhibitory data for reference compounds A-K containing a (hetero)aromatic ring at C(5) of the 7-azaindole system.
Selectivity of compounds according to the present invention and reference compounds expressed as Gini coefficient (J. Med. Chem. 2007, 50, 5773-5779) is shown in Table 5. The individual Gini coefficients have been calculated using the data in Tables 3 and 4. Value Gini=0 corresponds to a totally non-selective compound; value Gini=1 reflects perfect selectivity (inhibition of a single target only)

JNK1 = JNK1 (Homo sapiens, UniProt P45983); test: JNK1 SPA assay; settings: 2 μM ATP, GST-c-Jun substrate
Chain of JNK1 (P45983 whole entry, species assumed): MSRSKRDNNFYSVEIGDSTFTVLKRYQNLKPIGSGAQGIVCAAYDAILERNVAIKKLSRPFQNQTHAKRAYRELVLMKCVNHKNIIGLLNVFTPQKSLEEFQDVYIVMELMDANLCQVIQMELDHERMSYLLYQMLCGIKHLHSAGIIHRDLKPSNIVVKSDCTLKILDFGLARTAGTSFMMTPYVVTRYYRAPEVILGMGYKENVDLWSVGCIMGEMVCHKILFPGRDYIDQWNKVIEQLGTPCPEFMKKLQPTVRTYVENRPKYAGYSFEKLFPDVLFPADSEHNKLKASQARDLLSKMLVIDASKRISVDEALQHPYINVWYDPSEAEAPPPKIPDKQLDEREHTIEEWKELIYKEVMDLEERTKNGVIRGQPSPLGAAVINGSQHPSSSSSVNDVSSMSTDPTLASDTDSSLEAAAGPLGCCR
Experimental: (§1) JNK1, JNK2, JNK3—SPA Assay
(§2) JNK1, JNK2, JNK3—SPA Assay • 1. Compound is dissolved in DMSO to a convenient concentration and this is diluted in 10% DMSO to a five times concentrate of the desired starting concentration (frequently 1:100). • 2. 10 μl of 500 mM EDTA is added to alternative wells of the Opti-plate row, which will receive kinase reaction plus DMSO. This creates the negative control. • 3. For the JNK2 and JNK3 assay, compounds are prepared in six 2-fold dilutions with water and each concentration is tested in duplicate. For the JNK1 assay compounds are prepared in four 5-fold dilutions with water which are tested in triplicate. Controls are treated identically. • 4. 20 μl per well of each compound concentration is transferred to an Opti-plate, in duplicate. • 5. 30 μl (JNK2/3 SPA) or 50 μl (JNK1 SPA) of substrate solution (25 mM HEPES pH 7.5, 10 mM magnesium acetate with 3.33 μM ATP (JNK2/3) or 2 μM ATP (JNK1), approximately 7.5 kBq [γ-^33P] ATP, GST-c-Jun, in water) is added to each well. • 6. 50 μl (JNK2/3 SPA) or 30 μl (JNK1 SPA) of kinase solution (JNK in 25 mM HEPES pH 7.5, 10 mM Mg Acetate) is added to each well.
(§3) • 7. The plate is incubated for 30 minutes at room temperature. • 8. […] Plates are sealed and incubated for 30 minutes at room temperature, centrifuged for 10 minutes at 2500 g and counted. • 10. […]

JNK2 = JNK2 (Homo sapiens, UniProt P45984); test: JNK2 SPA assay; settings: 3.33 μM ATP, GST-c-Jun substrate
Chain of JNK2 (P45984 whole entry, species assumed): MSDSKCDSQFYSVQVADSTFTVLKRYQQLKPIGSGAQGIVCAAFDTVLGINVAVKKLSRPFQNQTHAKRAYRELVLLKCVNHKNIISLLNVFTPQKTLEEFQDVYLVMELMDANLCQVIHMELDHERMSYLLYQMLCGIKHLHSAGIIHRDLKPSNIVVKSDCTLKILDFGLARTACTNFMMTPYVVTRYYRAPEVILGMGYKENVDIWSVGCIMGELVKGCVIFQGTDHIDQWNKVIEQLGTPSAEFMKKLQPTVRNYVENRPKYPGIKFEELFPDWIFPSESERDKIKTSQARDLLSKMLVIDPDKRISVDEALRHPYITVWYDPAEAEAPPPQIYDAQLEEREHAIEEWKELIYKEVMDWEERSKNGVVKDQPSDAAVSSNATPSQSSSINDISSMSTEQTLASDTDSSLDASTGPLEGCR
Experimental: as §1, §2, §3

| IC50 (JNK1) [nM] | IC50 (JNK2) [nM] | Structure (SMILES) | Gini coefficient, compounds (I), non-aromatic C(5) group (panel of 100 kinases) |
| --- | --- | --- | --- |
| 191 | 245 | CN1CCN([C@H]2CC[C@H](c3cnc4[nH]cc(-c5cnn(C)c5)c4c3)CC2)CC1 [compound 25] | 0.6769 |
| 178 | 501 | CC1CCC(c2cnc3[nH]cc(-c4cnn(C)c4)c3c2)CC1 (centres unmarked) [compound 3] | – |
